This is an account of results in PMC12679356 (RSC Advances, 2025).

Assay [1] deals with MCF-7 breast cancer cells. To be noted: read-out: IC50 MCF-7; literature hybrids 5-7 and 5-FU; cited from earlier work.
Another assay deals with MDA-MB-231. Put plainly: MTT cytotoxicity assay on MDA-MB-231. It counts as cell-based. A general note: Tetrazolium dyes change colour on reduction, which living cells bring about.
Another assay deals with Caco-2. Put plainly: MTT cytotoxicity assay on Caco-2. To be noted: Homo sapiens, Caco-2, read-out: IC50 Caco-2. The format is cell-based.
The test system of another assay is HEK-293. As to the kind of experiment: MTT cytotoxicity assay on non-cancerous HEK-293. The settings on record: Homo sapiens, HEK293, read-out: IC50 HEK-293. The format is cell-based.

Values after ≈ are worked out from the molar mass of the structure shown.

`O=c1[nH]cc(F)c(=O)[nH]1` [Compound 5-FU, 5-FU]: the IC50 (commonly the point on the concentration scale where inhibition reaches its midpoint) in assay [1] is 12.4 µM.
For the compound `Cc1ccc(CNC(=O)Cn2cc(CSc3nc4ccccc4[nH]3)nn2)cc1` [Compound 11], the IC50 with MDA-MB-231 (Homo sapiens, MDA-MB-231, read-out: IC50 MDA-MB-231) is 68.3 ± 3.1 µg/mL (≈ 174 µM); in the assay on Caco-2, 63.8 ± 1.09 µg/mL (≈ 163 µM); in the assay with HEK-293 it was 63.4 ± 2.5 µg/mL (≈ 162 µM). Also, the “SI HEK/MDA” value in the assay with MDA-MB-231 (selectivity index, HEK-293 vs MDA-MB-231) was 0.93.
